The results in this text go back to patent US20200055848A1, “FURANONE DERIVATES AND METHODS OF USE THEREOF” (CARNA BIOSCIENCES, INC., priority 2016, published 2020).

Structures are written as SMILES.

The target in one experiment is T1, human Cdc7/human ASK complex protein (Homo sapiens, UniProt O00311).
T1 construct: purchased Carna Biosciences, Inc
T1 sequence (O00311 whole entry): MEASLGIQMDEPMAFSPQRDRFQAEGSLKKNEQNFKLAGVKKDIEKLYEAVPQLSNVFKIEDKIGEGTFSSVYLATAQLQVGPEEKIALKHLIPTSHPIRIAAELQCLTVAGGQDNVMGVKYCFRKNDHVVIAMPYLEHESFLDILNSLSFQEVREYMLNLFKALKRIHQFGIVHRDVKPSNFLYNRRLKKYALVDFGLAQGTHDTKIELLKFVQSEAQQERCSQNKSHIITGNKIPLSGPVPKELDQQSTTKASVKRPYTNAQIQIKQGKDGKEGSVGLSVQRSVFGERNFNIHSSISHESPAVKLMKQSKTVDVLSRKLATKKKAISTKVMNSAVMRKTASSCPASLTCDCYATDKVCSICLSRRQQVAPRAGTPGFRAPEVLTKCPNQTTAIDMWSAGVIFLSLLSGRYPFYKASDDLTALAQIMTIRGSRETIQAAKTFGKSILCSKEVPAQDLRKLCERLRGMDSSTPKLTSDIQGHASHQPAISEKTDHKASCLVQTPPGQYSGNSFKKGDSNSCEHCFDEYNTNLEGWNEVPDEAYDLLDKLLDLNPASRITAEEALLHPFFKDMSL
T1 sequence (Q9UBU7 whole entry partner): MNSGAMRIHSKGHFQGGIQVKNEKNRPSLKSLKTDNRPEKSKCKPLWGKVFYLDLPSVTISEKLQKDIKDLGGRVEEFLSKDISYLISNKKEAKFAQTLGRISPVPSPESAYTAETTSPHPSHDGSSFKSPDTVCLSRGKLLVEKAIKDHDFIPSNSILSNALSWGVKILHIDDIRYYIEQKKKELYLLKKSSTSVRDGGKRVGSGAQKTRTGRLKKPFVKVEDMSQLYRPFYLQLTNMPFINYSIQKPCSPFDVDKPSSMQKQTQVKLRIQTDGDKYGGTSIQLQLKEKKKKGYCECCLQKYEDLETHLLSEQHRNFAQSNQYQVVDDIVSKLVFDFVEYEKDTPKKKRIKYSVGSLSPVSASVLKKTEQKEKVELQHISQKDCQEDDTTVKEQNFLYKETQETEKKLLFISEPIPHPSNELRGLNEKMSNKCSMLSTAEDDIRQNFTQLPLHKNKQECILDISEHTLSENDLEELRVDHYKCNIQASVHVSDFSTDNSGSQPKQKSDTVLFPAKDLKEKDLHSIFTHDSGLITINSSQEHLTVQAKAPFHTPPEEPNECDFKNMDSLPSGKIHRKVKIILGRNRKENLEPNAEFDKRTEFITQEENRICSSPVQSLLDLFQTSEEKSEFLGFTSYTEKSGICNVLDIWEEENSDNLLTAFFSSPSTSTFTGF
The experiment can be described thus: Cdc7/ASK enzymatic assay. The experiment is classed as biochemical. As to conditions: 5 μM ATP; compared with compound 3. The protocol:
Measurement of Cdc7 kinase activity was carried out using MSA assay kit (QuickScout™ Screening Assist Kit, Carna Biosciences, Inc.). Assay buffer (20 mM HEPES, 0.01% Triton X-100™, 2 mM dithiothreitol, pH 7.5) was used to prepare a substrate mixture solution comprising 4 μM of kinase-reaction substrate (FITC-labeled MCM2 peptide), 40 mM MgCl2, and 4 times concentrations of final targeted ATP (5, 100, and 1,000 μM). The enzyme supplied in the kit (human Cdc7/human ASK complex protein) was diluted into the assay buffer to prepare a 7 nM solution (enzyme solution). The compound stock solution was prepared by diluting a 10 mM DMSO solution into the assay buffer (final 4% DMSO). The kinase reaction was performed by mixing of 5 μL of the compound solution, 5 μL of the substrate mixture solution, and 10 μL of the enzyme solution in a 384-well plate. For the pre-incubation assay, the compound solution and the enzyme solution were pre-mixed and incubated at ambient temperature for 30 min before adding into the substrate mixture solution to start enzymatic reaction. After the reaction at 25° C. for 5 hours, 60 μL of the termination buffer (supplied in the kit) was added to stop the reaction. The phosphorylation of substrate was measured using a LabChip EZ Reader II system (Caliper Life Sciences). The percent inhibition (%) by a tested compound was calculated according to the following formula:
Percent inhibition (%)=(1−(C−A)/(B−A))×100
A represents P/(P+S) for a blank well, B represents P/(P+S) for a solvent well, and C represents P/(P+S) for a compound-added well. S: the peak heights of the separated substrate, P: phosphorylated substrate.
The IC50 value of tested compound was calculated by regression analysis of the percent inhibition values versus the (logarithmic) concentration of the tested compound.
As for `CCOC(=O)C1=C(Nc2ccccc2)SC(=Cc2c[nH]c3ncccc23)C1=O` [Compound 4, Ethyl 5-((1H-pyrrolo[2,3-b]pyridin-3-yl)methylene)-4-oxo-2-(phenylamino)-4,5-dihydrothiophene-3-carboxylate], the “Cdc7 inhibitory potency (in words)” value is given as “retention of some potency”.

In the case of `NC(=O)C1=C(Nc2ccccc2)O/C(=C\c2c[nH]c3ncccc23)C1=O` [Compound 10, 5-((1H-Pyrrolo[2,3-b]pyridin-3-yl)methylene)-4-oxo-2-(phenylamino)-4,5-dihydrofuran-3-carboxamide], the “Cdc7 inhibitory potency (in words)” value is given as “significant decrease in potency”.

With `CCNC(=O)C1=C(Nc2ccccc2)O/C(=C\c2c[nH]c3ncccc23)C1=O` [Compound 11, 5-((1H-Pyrrolo[2,3-b]pyridin-3-yl)methylene)-N-ethyl-4-oxo-2-(phenylamino)-4,5-dihydrofuran-3-carboxamide], the “Cdc7 inhibitory potency (in words)” value is “significant decrease in potency”.

The experiment is the same for the next values; noted with them: 5 μM ATP; mean of duplicated assays; read-out: Cdc7 IC50.
On to `CCOC(=O)C1=C(Nc2ccccc2)SC(=Cc2c[nH]c3ncccc23)C1=O` [Compound 4, Ethyl 5-((1H-pyrrolo[2,3-b]pyridin-3-yl)methylene)-4-oxo-2-(phenylamino)-4,5-dihydrothiophene-3-carboxylate], for which the IC50 (usually the concentration needed to halve the response being measured) was more than 10 µM.

Turning to `CCOC(=O)C1=C(Nc2ccccc2)OC(=Cc2c[nH]c3ncc(Cl)cc23)C1=O` [Compound 5, Ethyl 5-((5-chloro-1H-pyrrolo[2,3-b]pyridin-3-yl)methylene)-4-oxo-2-(phenylamino)-4,5-dihydrofuran-3-carboxylate], the concentration for half-maximal inhibition (IC50) came to 0.044 µM.

For `CCOC(=O)C1=C(Nc2ccccc2)OC(=Cc2ccc(O)c(C)c2)C1=O` [Compound 6, Ethyl 5-(4-hydroxy-3-methylbenzylidene)-4-oxo-2-(phenylamino)-4,5-dihydrofuran-3-carboxylate], the IC50 turned out to be 1.2 µM.

As to `CCOC(=O)C1=C(Nc2ccccc2)OC(=Cc2ccc3c(c2)OCO3)C1=O` [Compound 7, Ethyl 5-(benzo[d][1,3]dioxol-5-ylmethylene)-4-oxo-2-(phenylamino)-4,5-dihydrofuran-3-carboxylate], the half-maximal inhibitory concentration (IC50) was 3.2 µM.

Take `O=C(O)C1=C(Nc2ccccc2)O/C(=C\c2c[nH]c3ncccc23)C1=O` [Compound 9, 5-((1H-Pyrrolo[2,3-b]pyridin-3-yl)methylene)-4-oxo-2-(phenylamino)-4,5-dihydrofuran-3-carboxylic acid]: the 50% inhibitory concentration (IC50) is 0.0099 µM.

For `NC(=O)C1=C(Nc2ccccc2)O/C(=C\c2c[nH]c3ncccc23)C1=O` [Compound 10, 5-((1H-Pyrrolo[2,3-b]pyridin-3-yl)methylene)-4-oxo-2-(phenylamino)-4,5-dihydrofuran-3-carboxamide], the IC50 is more than 10 µM.

As for `CCOC(=O)C1=C(Nc2cccc(Cl)c2)OC(=Cc2c[nH]c3ncccc23)C1=O` [Compound 14, Ethyl 5-((1H-pyrrolo[2,3-b]pyridin-3-yl)methylene)-2-((3-chlorophenyl)amino)-4-oxo-4,5-dihydrofuran-3-carboxylate], the IC50 is 0.012 µM.

Take `CCOC(=O)C1=C(Nc2ccc(Cl)cc2)OC(=Cc2c[nH]c3ncccc23)C1=O` [Compound 15, Ethyl 5-((1H-pyrrolo[2,3-b]pyridin-3-yl)methylene)-2-((4-chlorophenyl)amino)-4-oxo-4,5-dihydrofuran-3-carboxylate]: the IC50 was found to be 0.0067 µM.

Regarding `CCOC(=O)C1=C(Nc2ccccc2OC)OC(=Cc2c[nH]c3ncccc23)C1=O` [Compound 16, Ethyl 5-((1H-pyrrolo[2,3-b]pyridin-3-yl)methylene)-2-((2-methoxyphenyl)amino)-4-oxo-4,5-dihydrofuran-3-carboxylate], the IC50 came to 0.012 µM.

On to `CCOC(=O)C1=C(Nc2cccc(OC)c2)OC(=Cc2c[nH]c3ncccc23)C1=O` [Compound 17, Ethyl 5-((1H-pyrrolo[2,3-b]pyridin-3-yl)methylene)-2-((3-methoxyphenyl)amino)-4-oxo-4,5-dihydrofuran-3-carboxylate], for which the IC50 was found to be 0.029 µM.

Take `CCOC(=O)C1=C(Nc2ccc(C)cc2)OC(=Cc2c[nH]c3ncccc23)C1=O` [Compound 22, Ethyl 5-((1H-pyrrolo[2,3-b]pyridin-3-yl)methylene)-4-oxo-2-(p-tolylamino)-4,5-dihydrofuran-3-carboxylate]: the IC50 stood at 0.0059 µM.

As for `CCOC(=O)C1=C(Nc2ccccn2)OC(=Cc2c[nH]c3ncccc23)C1=O` [Compound 25, Ethyl 5-((1H-pyrrolo[2,3-b]pyridin-3-yl)methylene)-4-oxo-2-(pyridin-2-ylamino)-4,5-dihydrofuran-3-carboxylate], the IC50 was found to be 0.03 µM.
